The record followed here is US20210188843A1, “QUINOLINE COMPOUNDS AND THEIR PREPARATION AND USE AS ANTIMALARIAL AGENTS” (The United States of America,as represented by the …, priority 2018, published 2021).

The structures appear in SMILES notation. pEC50: −log10 of the molar value. In brackets after ≈: the same amount, converted by molar mass. Where two headings read alike, the source gives them in different places.

Data set [1] can be described thus: Microsomal stability (rat). The class given is in vitro ADME. The conditions noted are these: rat microsomes.
Data set [2] is described as follows: Solubility pH 7.4. The class given is physicochemical. To be noted: aqueous buffer.
Data set [3] in a line: PAMPA permeability. Format: in vitro ADME.
The subject of data set [4] is Asexual parasites of P. falciparum strain 3D7. In words: In vitro drug activity on asexual parasites (SYBR Green assay). The class given is cell-based. The conditions noted are these: Plasmodium falciparum, P. falciparum 3D7 asexual stage, 72 h, read-out: Asexual EC50. The method, boiled down:
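3D7 asexual cultures at 0.5% parasitemia and 2% hematocrit were exposed to drug (DMSO <0.5%) for 72 h under standard culture conditions, in duplicate with no-drug and RBC-only controls. After freeze-thaw lysis, SYBR Green I lysis buffer was added for 30 min at room temperature; fluorescence was read at 490 nm excitation/520 nm emission.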

The mark [5] stands for this setting: Table 3, read-out: Microsomal Stability (rat) T1/2.
Setting [6] is: Table 1, read-out: Microsomal Stability (rat) T1/2.

In the case of `Cn1c(=N)n(-c2cncnc2)c2c3cc(-c4ccc(Cl)cc4)ccc3ncc21`, in data set [1] (setting [5]), the half-life was more than 30 min. Further, the solubility (commonly how much of the substance goes into solution per volume) in data set [2] (Table 3) came to 16.3 µg/mL (≈ 42.1 µM). Also, the Papp (usually the rate of passage across a membrane or cell layer, normalised by area and donor concentration) in data set [3] (Table 3) was 397 ×10⁻⁶ cm/s. In addition, in data set [4] (Table 3), the pEC50 (in general, the negative decadic logarithm of the EC50, by convention in mol/L) is 6.66.

In the case of `Cc1ccc(C#N)cc1-n1/c(=N/C(=N)N)n(C)c2cnc3ccc(-c4ccc(F)cc4)cc3c21` [Compound 56, (E)-1-(1-(5-cyano-2-methylphenyl)-8-(4-fluorophenyl)-3-methyl-1,3-dihydro-2H-imidazo[4,5-c]quinolin-2-ylidene)guanidine], the half-life in data set [1] (setting [6]) is more than 30 min. The same compound displayed a solubility in data set [2] (Table 1) of more than 44 µg/mL. The compound further gave a Papp in data set [3] (Table 1) of 1.7 ×10⁻⁶ cm/s. Moreover, the pEC50 in data set [4] (Table 1) is 5.84.

`Cc1ccc(-c2ccc3ncc4c(c3c2)n(-c2cc(C#N)c(N3CCOCC3)cc2C)c(=N)n4C)cc1` [Compound 145, 5-(2-imino-3-methyl-8-(p-tolyl)-2,3-dihydro-1H-imidazo[4,5-c]quinolin-1-yl)-4-methyl-2-morpholinobenzonitrile]: in data set [1] (setting [6]), the half-life was more than 30 min. Moreover, in data set [2] (Table 1), the concentration in solution (solubility) came to 16.7 µg/mL (≈ 34.2 µM). In addition, the Papp in data set [3] (Table 1) turned out to be 1140 ×10⁻⁶ cm/s. Besides, the pEC50 in data set [4] (Table 1) was 6.85.

Regarding `Cc1ccc(C#N)cc1-n1c(=N)n(C)c2cnc3ccc(-c4cnn(C)c4)cc3c21` [Compound 136, 3-(2-imino-3-methyl-8-(1-methyl-1H-pyrazol-4-yl)-2,3-dihydro-1H-imidazo[4,5-c]quinolin-1-yl)-4-methylbenzonitrile], the half-life in data set [1] (setting [6]) is more than 30 min. The solubility in data set [2] (Table 1) came out at 40.4 µg/mL (≈ 103 µM). The compound further displayed a Papp in data set [3] (Table 1) of 89.5 ×10⁻⁶ cm/s. Also, the pEC50 in data set [4] (Table 1) was 7.25.

Consider `Cc1ccc(C#N)cc1-n1c(=N)n(C)c2cnc3ccc(-c4cccc(O)c4)cc3c21` [Compound 37, 3-(8-(3-hydroxyphenyl)-2-imino-3-methyl-2,3-dihydro-1H-imidazo[4,5-c]quinolin-1-yl)-4-methylbenzonitrile], for which, in data set [1] (setting [6]), the half-life was more than 30 min. Moreover, the solubility in data set [2] (Table 1) was more than 40 µg/mL. For the same compound, in data set [3] (Table 1), the apparent permeability (Papp) was determined as 10.3 ×10⁻⁶ cm/s. The pEC50 in data set [4] (Table 1) is 7.34.

Consider `Cn1c(=N)n(-c2cncnc2)c2c3cc(-c4ccc(N)nc4)ccc3ncc21`, for which the half-life in data set [1] (setting [5]) was more than 30 min. Moreover, in data set [2] (Table 3), the concentration in solution (solubility) was 33.9 µg/mL (≈ 92 µM). This compound showed a Papp in data set [3] (Table 3) of 12.9 ×10⁻⁶ cm/s. In data set [4] (Table 3), the pEC50 is 6.84.

As to `Cn1c(=N)n(-c2ccc(N3CCNCC3)c(C#N)c2)c2c3cc(-c4ccc(Cl)cc4)ccc3ncc21` [Compound 49, 5-(8-(4-chlorophenyl)-2-imino-3-methyl-2,3-dihydro-1H-imidazo[4,5-c]quinolin-1-yl)-2-(piperazin-1-yl)benzonitrile], the half-life in data set [1] (setting [6]) is more than 30 min. Besides, in data set [2] (Table 1), the concentration in solution (solubility) came to 1 µg/mL (≈ 2.02 µM). Besides, in data set [3] (Table 1), the Papp amounted to 4.9 ×10⁻⁶ cm/s. Further, the pEC50 in data set [4] (Table 1) is 7.24.

Regarding `Cc1ccc(C#N)cc1-n1c(=N)n(C)c2cnc3ccc(-c4cccc(N)c4)cc3c21` [Compound 38, 3-(8-(3-aminophenyl)-2-imino-3-methyl-2,3-dihydro-1H-imidazo[4,5-c]quinolin-1-yl)-4-methylbenzonitrile], in data set [1] (setting [6]), the half-life is more than 30 min. Also, in data set [2] (Table 1), the solubility was more than 40 µg/mL. This compound gave a Papp in data set [3] (Table 1) of 435 ×10⁻⁶ cm/s. For the same compound, the pEC50 in data set [4] (Table 1) was 7.08.

As to `Cn1c(=N)n(-c2ccc(C(=O)NC3CC3)cc2)c2c3cc(-c4ccc(Cl)cc4)ccc3ncc21` [Compound 65, 4-(8-(4-chlorophenyl)-2-imino-3-methyl-2,3-dihydro-1H-imidazo[4,5-c]quinolin-1-yl)-N-cyclopropylbenzamide], the half-life in data set [1] (setting [6]) is more than 30 min. In data set [2] (Table 1), this compound showed a solubility of 6.1 µg/mL (≈ 13 µM). In data set [3] (Table 1), this compound showed a Papp of 10.2 ×10⁻⁶ cm/s. Further, the pEC50 in data set [4] (Table 1) was 6.24.

`Cc1ccc(C#N)cc1-n1/c(=N/C#N)n(C)c2cnc3ccc(-c4ccc(Cl)cc4)cc3c21` [Compound 8, (E)-N-(8-(4-chlorophenyl)-1-(5-cyano-2-methylphenyl)-3-methyl-1,3-dihydro-2H-imidazo[4,5-c]quinolin-2-ylidene)cyanamide]: the half-life in data set [1] (setting [6]) is more than 30 min. In data set [2] (Table 1), this compound returned a solubility of less than 1 µg/mL. The Papp in data set [3] (Table 1) was 1190 ×10⁻⁶ cm/s. The pEC50 in data set [4] (Table 1) was 7.22.

`Cc1ccc(C#N)cc1-n1c(=N)n(C)c2cnc3ccc(-c4ccc(F)c(F)c4)cc3c21` [Compound 43, 3-(8-(3,4-difluorophenyl)-2-imino-3-methyl-2,3-dihydro-1H-imidazo[4,5-c]quinolin-1-yl)-4-methylbenzonitrile]: in data set [1] (setting [6]), the half-life was more than 30 min. In data set [2] (Table 1), this compound came in with a solubility of 8.3 µg/mL (≈ 19.5 µM). Moreover, the Papp in data set [3] (Table 1) turned out to be 837 ×10⁻⁶ cm/s. Besides, the pEC50 in data set [4] (Table 1) is 6.93.

On to `Cc1ccc(C#N)cc1-n1c(=N)n(C)c2cnc3ccc(-c4ccnn4C)cc3c21` [Compound 5, 3-(2-imino-3-methyl-8-(1-methyl-1H-pyrazol-5-yl)-2,3-dihydro-1H-imidazo[4,5-c]quinolin-1-yl)-4-methylbenzonitrile], for which the half-life in data set [1] (setting [6]) is more than 30 min. In data set [2] (Table 1), this compound registered a solubility of 42.5 µg/mL (≈ 108 µM). Further, the Papp in data set [3] (Table 1) came out at 219 ×10⁻⁶ cm/s. Also, the pEC50 in data set [4] (Table 1) is 6.81.

Regarding `CC(=O)N1CCN(c2cc(C)c(-n3c(=N)n(C)c4cnc5ccc(-c6ccc(Cl)cc6)cc5c43)cc2C#N)CC1` [Compound 109, 2-(4-acetylpiperazin-1-yl)-5-(8-(4-chlorophenyl)-2-imino-3-methyl-2,3-dihydro-1H-imidazo[4,5-c]quinolin-1-yl)-4-methylbenzonitrile], in data set [1] (setting [6]), the half-life is more than 30 min. Further, the solubility in data set [2] (Table 1) was less than 1 µg/mL. This compound displayed a Papp in data set [3] (Table 1) of 838 ×10⁻⁶ cm/s. Also, in data set [4] (Table 1), the pEC50 was 8.36.

Take `Cc1cc(N2CCCCC2)c(C#N)cc1-n1c(=N)n(C)c2cnc3ccc(-c4ccc(Cl)cc4)cc3c21` [Compound 112, 5-(8-(4-chlorophenyl)-2-imino-3-methyl-2,3-dihydro-1H-imidazo[4,5-c]quinolin-1-yl)-4-methyl-2-(piperidin-1-yl)benzonitrile]: in data set [1] (setting [6]), the half-life is more than 30 min. For the same compound, the solubility in data set [2] (Table 1) is less than 1 µg/mL. This compound also displayed a Papp in data set [3] (Table 1) of 1280 ×10⁻⁶ cm/s. Also, the pEC50 in data set [4] (Table 1) is 5.74.

Take `Cn1c(=N)n(-c2ccc(N3CCOCC3)c(C#N)c2)c2c3cc(-c4ccc(Cl)cc4)ccc3ncc21` [Compound 51, 5-(8-(4-chlorophenyl)-2-imino-3-methyl-2,3-dihydro-1H-imidazo[4,5-c]quinolin-1-yl)-2-morpholinobenzonitrile]: the half-life in data set [1] (setting [6]) was more than 30 min. In addition, the solubility in data set [2] (Table 1) is less than 1 µg/mL. This compound also registered a Papp in data set [3] (Table 1) of 81.1 ×10⁻⁶ cm/s. The pEC50 in data set [4] (Table 1) is 6.73.

As to `COc1ccc(C#N)cc1-n1c(=N)n(C)c2cnc3ccc(-c4ccc(Cl)cc4)cc3c21` [Compound 53, 3-(8-(4-chlorophenyl)-2-imino-3-methyl-2,3-dihydro-1H-imidazo[4,5-c]quinolin-1-yl)-4-methoxybenzonitrile], the half-life in data set [1] (setting [6]) is more than 30 min. Moreover, in data set [2] (Table 1), the concentration in solution (solubility) was 12.2 µg/mL (≈ 27.7 µM). This compound showed a Papp in data set [3] (Table 1) of 850 ×10⁻⁶ cm/s. Moreover, the pEC50 in data set [4] (Table 1) is 6.92.

As to `Cc1ncncc1-n1c(=N)n(C)c2cnc3ccc(-c4ccc(Cl)cc4)cc3c21`, the half-life in data set [1] (setting [5]) was more than 30 min. In addition, the concentration in solution in data set [2] (Table 3) (solubility) came to 24.7 µg/mL (≈ 61.6 µM). In data set [3] (Table 3), this compound showed a Papp of 1290 ×10⁻⁶ cm/s. The pEC50 in data set [4] (Table 3) is 6.14.

For `N=c1ccc2cnc3ccc(-c4ccc(Cl)cc4)cc3c2n1-c1cccc(Cl)c1`, the half-life in data set [1] (Table 2, read-out: Microsomal Stability (rat) T1/2) was more than 30 min. Moreover, the solubility in data set [2] (Table 2) came to 20.7 µg/mL (≈ 49.7 µM). The compound also registered a Papp in data set [3] (Table 2) of 1240 ×10⁻⁶ cm/s. In data set [4] (Table 2), the pEC50 was 6.75.
